The test system of the assay is Escherichia coli ATCC 25922. In words: Minimum inhibitory concentration (MIC), CLSI broth micro-dilution, E. coli. It counts as cell-based. The following applies: Escherichia coli, ATCC25922, 22 h, Table 6, cation adjusted Mueller Hinton Broth + 0.002% Tween-80, 35° C. An outline of the steps: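 Antibacterial potency is measured as MIC by the CLSI broth dilution method. Bacteria at OD600 0.0005 in Tween-80-supplemented cation-adjusted Mueller Hinton broth face ten twofold compound dilutions for 22 h at 35° C.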
A general note: Broth dilution looks for growth in wells or tubes with falling amounts of substance.

For 14 compounds, MIC results are on record in US20260274892A1, “MACROCYCLIC BROAD SPECTRUM ANTIBIOTICS” (RQx Pharmaceuticals, Inc., priority 2017, published 2026).

`Cc1nc(-c2ccc(OCCC(C)(C)C)cc2)nc(C)c1C(=O)N[C@@H](CCN)C(=O)N(C)[C@@H]1C(=O)N[C@@H](C)C(=O)N[C@H](C(=O)NCC#N)Cc2ccc(OCCN)c(c2)-c2cc1ccc2O` (racemic) [Compound 528, rac-(8S,11S,14S)-3-(2-aminoethoxy)-N-(cyanomethyl)-18-hydroxy-11-methyl-14-[methyl-[rac-(2S)-4-amino-2-[[2-[4-(3,3-dimethylbutoxy)phenyl]-4,6-dimethyl-pyrimidine-5-carbonyl]amino]butanoyl]amino]-10,13-dioxo-9,12-diazatricyclo[13.3.1.12,6]icosa-1(18),2(20),3,5,15(19),16-hexaene-8-carboxamide]: the MIC is 0.063 µM.

In the case of `CCCCc1ccc(-c2cc(N)c(C(=O)N[C@@H](CCN)C(=O)N(C)[C@@H]3C(=O)N[C@@H](C)C(=O)N[C@H](C(=O)NCC#N)Cc4ccc(OCCN)c(c4)-c4cc3ccc4OCCN)c(C)n2)nc1` (racemic) [Compound 529, rac-(8S,11S,14S)-3,18-bis(2-aminoethoxy)-N-(cyanomethyl)-11-methyl-14-[methyl-[rac-(2S)-4-amino-2-[[4-amino-6-(5-butyl-2-pyridyl)-2-methyl-pyridine-3-carbonyl]amino]butanoyl]amino]-10,13-dioxo-9,12-diazatricyclo[13.3.1.12,6]icosa-1(18),2(20),3,5,15(19),16-hexaene-8-carboxamide], the MIC was 4 µM.

On to `Cc1nc(-c2ccc(OC3CCCCCC3)cc2)nc(N)c1C(=O)N[C@@H](CCN)C(=O)N(C)[C@@H]1C(=O)N[C@@H](C)C(=O)N[C@H](C(=O)NCC#N)Cc2ccc(OCCN)c(c2)-c2cc1ccc2OCCN` (racemic) [Compound 532, rac-(8S,11S,14S)-3,18-bis(2-aminoethoxy)-N-(cyanomethyl)-11-methyl-14-[methyl-[rac-(2S)-4-amino-2-[[4-amino-2-[4-(cycloheptoxy)phenyl]-6-methyl-pyrimidine-5-carbonyl]amino]butanoyl]amino]-10,13-dioxo-9,12-diazatricyclo[13.3.1.12,6]icosa-1(18),2(20),3,5,15(19),16-hexaene-8-carboxamide], for which the MIC was 0.063 µM.

On to `CC(=O)Nc1cc(C(=O)N[C@@H](CCN)C(=O)N(C)[C@@H]2C(=O)N[C@@H](C)C(=O)N[C@H](C(=O)NCC#N)Cc3ccc(OCCN)c(c3)-c3cc2ccc3OCCN)c(C)nc1-c1ccc(C(C)(C)C)cc1` (racemic) [Compound 533, rac-(8S,11S,14S)-3,18-bis(2-aminoethoxy)-N-(cyanomethyl)-11-methyl-14-[methyl-[rac-(2S)-2-[[5-acetamido-6-(4-tert-butylphenyl)-2-methyl-pyridine-3-carbonyl]amino]-4-amino-butanoyl]amino]-10,13-dioxo-9,12-diazatricyclo[13.3.1.12,6]icosa-1(18),2(20),3,5,15(19),16-hexaene-8-carboxamide], for which the MIC was determined as 1.5 µM.

For `Cc1nc(-c2ccc(OCCC(C)(C)C)cn2)nc(N)c1C(=O)N[C@@H](CCN)C(=O)N(C)[C@@H]1C(=O)N[C@@H](C)C(=O)N[C@H](C(=O)NCC#N)Cc2ccc(OCCN)c(c2)-c2cc1ccc2OCCN` (racemic) [Compound 534, rac-(8S,11S,14S)-3,18-bis(2-aminoethoxy)-N-(cyanomethyl)-11-methyl-14-[methyl-[rac-(2S)-4-amino-2-[[4-amino-2-[5-(3,3-dimethylbutoxy)-2-pyridyl]-6-methyl-pyrimidine-5-carbonyl]amino]butanoyl]amino]-10,13-dioxo-9,12-diazatricyclo[13.3.1.12,6]icosa-1(18),2(20),3,5,15(19),16-hexaene-8-carboxamide], the MIC was 0.5 µM.

Regarding `Cc1nc(-c2ccc(C(C)(C)C)cc2)c(C(F)(F)F)cc1C(=O)N[C@@H](CCN)C(=O)N(C)[C@@H]1C(=O)N[C@@H](C)C(=O)N[C@H](C(=O)NCC#N)Cc2ccc(OCCN)c(c2)-c2cc1ccc2OCCN` (racemic) [Compound 537, rac-(8S,11S,14S)-3,18-bis(2-aminoethoxy)-N-(cyanomethyl)-11-methyl-14-[methyl-[rac-(2S)-4-amino-2-[[6-(4-tert-butylphenyl)-2-methyl-5-(trifluoromethyl)pyridine-3-carbonyl]amino]butanoyl]amino]-10,13-dioxo-9,12-diazatricyclo[13.3.1.12,6]icosa-1(18),2(20),3,5,15(19),16-hexaene-8-carboxamide], the MIC was 0.25 µM.

`Cc1nc(-c2ccc(OCCC(C)(C)C)cc2)cc(N)c1C(=O)N[C@@H](CCN)C(=O)N(C)[C@@H]1C(=O)N[C@@H](C)C(=O)N[C@H](C(=O)NCC#N)Cc2ccc(OCCN)c(c2)-c2cc1ccc2OCCN` (racemic) [Compound 538, rac-(8S,11S,14S)-3,18-bis(2-aminoethoxy)-N-(cyanomethyl)-11-methyl-14-[methyl-[rac-(2S)-4-amino-2-[[4-amino-6-[4-(3,3-dimethylbutoxy)phenyl]-2-methyl-pyridine-3-carbonyl]amino]butanoyl]amino]-10,13-dioxo-9,12-diazatricyclo[13.3.1.12,6]icosa-1(18),2(20),3,5,15(19),16-hexaene-8-carboxamide]: the MIC turned out to be 0.063 µM.

Turning to `Cc1nc(-c2cnc(C(C)(C)C)nc2)nc(C)c1C(=O)N[C@@H](CCN)C(=O)N(C)[C@@H]1C(=O)N[C@@H](C)C(=O)N[C@H](C(=O)NCC#N)Cc2ccc(OCCN)c(c2)-c2cc1ccc2OCCN` (racemic) [Compound 540, rac-(8S,11S,14S)-3,18-bis(2-aminoethoxy)-N-(cyanomethyl)-11-methyl-14-[methyl-[rac-(2S)-4-amino-2-[[2-(2-tert-butylpyrimidin-5-yl)-4,6-dimethyl-pyrimidine-5-carbonyl]amino]butanoyl]amino]-10,13-dioxo-9,12-diazatricyclo[13.3.1.12,6]icosa-1(18),2(20),3,5,15(19),16-hexaene-8-carboxamide], the MIC came to 1.5 µM.

With `Cc1cc(-c2ccc(C(C)(C)C)cc2)cc(C)c1C(=O)N[C@@H](CCN)C(=O)N(C)[C@@H]1C(=O)N[C@@H](C)C(=O)N[C@H](C(=O)NCC#N)Cc2ccc(O)c(c2)-c2cc1ccc2OCCN` (racemic) [Compound 541, rac-(8S,11S,14S)-18-(2-aminoethoxy)-N-(cyanomethyl)-3-hydroxy-11-methyl-14-[methyl-[rac-(2S)-4-amino-2-[[4-(4-tert-butylphenyl)-2,6-dimethyl-benzoyl]amino]butanoyl]amino]-10,13-dioxo-9,12-diazatricyclo[13.3.1.12,6]icosa-1(18),2(20),3,5,15(19),16-hexaene-8-carboxamide], the MIC is 0.75 µM.

As for `Cc1nc(-c2ccc(OC3CCCCC3)cc2)cc(N)c1C(=O)N[C@@H](CCN)C(=O)N(C)[C@@H]1C(=O)N[C@@H](C)C(=O)N[C@H](C(=O)NCC#N)Cc2ccc(OCCN)c(c2)-c2cc1ccc2OCCN` (racemic) [Compound 544, rac-(8S,11S,14S)-3,18-bis(2-aminoethoxy)-N-(cyanomethyl)-11-methyl-14-[methyl-[rac-(2S)-4-amino-2-[[4-amino-6-[4-(cyclohexoxy)phenyl]-2-methyl-pyridine-3-carbonyl]amino]butanoyl]amino]-10,13-dioxo-9,12-diazatricyclo[13.3.1.12,6]icosa-1(18),2(20),3,5,15(19),16-hexaene-8-carboxamide], the MIC is 0.13 µM.

With `Cc1nc(-c2ccc(OC3CCCCCC3)cc2)cc(N)c1C(=O)N[C@@H](CCN)C(=O)N(C)[C@@H]1C(=O)N[C@@H](C)C(=O)N[C@H](C(=O)NCC#N)Cc2ccc(OCCN)c(c2)-c2cc1ccc2OCCN` (racemic) [Compound 545, rac-(8S,11S,14S)-3,18-bis(2-aminoethoxy)-N-(cyanomethyl)-11-methyl-14-[methyl-[rac-(2S)-4-amino-2-[[4-amino-6-[4-(cycloheptoxy)phenyl]-2-methyl-pyridine-3-carbonyl]amino]butanoyl]amino]-10,13-dioxo-9,12-diazatricyclo[13.3.1.12,6]icosa-1(18),2(20),3,5,15(19),16-hexaene-8-carboxamide], the minimum inhibitory concentration (MIC) was 1 µM.

As for `CCc1nc(-c2ccc(C(C)(C)C)cc2)cc(N)c1C(=O)N[C@@H](CCN)C(=O)N(C)[C@@H]1C(=O)N[C@@H](C)C(=O)N[C@H](C(=O)NCC#N)Cc2ccc(OCCN)c(c2)-c2cc1ccc2OCCN` (racemic) [Compound 546, rac-(8S,11S,14S)-3,18-bis(2-aminoethoxy)-N-(cyanomethyl)-11-methyl-14-[methyl-[rac-(2S)-4-amino-2-[[4-amino-6-(4-tert-butylphenyl)-2-ethyl-pyridine-3-carbonyl]amino]butanoyl]amino]-10,13-dioxo-9,12-diazatricyclo[13.3.1.12,6]icosa-1(18),2(20),3,5,15(19),16-hexaene-8-carboxamide], the MIC worked out at 0.38 µM.

Regarding `Cc1nc(-c2ccc(OC3CCCCC3)cc2)nc(N)c1C(=O)N[C@@H](CCN)C(=O)N(C)[C@@H]1C(=O)N[C@@H](C)C(=O)N[C@H](C(=O)NCC#N)Cc2ccc(OCCN)c(c2)-c2cc1ccc2OCCN` (racemic) [Compound 547, rac-(8S,11S,14S)-3,18-bis(2-aminoethoxy)-N-(cyanomethyl)-11-methyl-14-[methyl-[rac-(2S)-4-amino-2-[[4-amino-2-[4-(cyclohexoxy)phenyl]-6-methyl-pyrimidine-5-carbonyl]amino]butanoyl]amino]-10,13-dioxo-9,12-diazatricyclo[13.3.1.12,6]icosa-1(18),2(20),3,5,15(19),16-hexaene-8-carboxamide], the minimal inhibitory concentration (MIC) is 0.094 µM.

In the case of `Cc1nc(-c2cnc(OCCC(C)(C)C)nc2)nc(C)c1C(=O)N[C@@H](CCN)C(=O)N(C)[C@@H]1C(=O)N[C@@H](C)C(=O)N[C@H](C(=O)NCC#N)Cc2ccc(OCCN)c(c2)-c2cc1ccc2OCCN` (racemic) [Compound 550, rac-(8S,11S,14S)-3,18-bis(2-aminoethoxy)-N-(cyanomethyl)-11-methyl-14-[methyl-[rac-(2S)-4-amino-2-[[2-[2-(3,3-dimethylbutoxy)pyrimidin-5-yl]-4,6-dimethyl-pyrimidine-5-carbonyl]amino]butanoyl]amino]-10,13-dioxo-9,12-diazatricyclo[13.3.1.12,6]icosa-1(18),2(20),3,5,15(19),16-hexaene-8-carboxamide], the MIC came out at 2 µM.

One may read the MIC as the lowest concentration that inhibits growth of the organism.
